Data set [1] is described as follows: in vitro. The note with it: rat, microsomes.
Data set [2] in a line: in vitro. Conditions: human, microsomes.
The nature of data set [3]: in vivo. Conditions: rat, po.
Data set [4] in a line: in vivo. The note with it: rat, brain and plasma, ip.
A short description of data set [5]: in vivo. The note with it: rat.
Data set [6] is filed under the species Rattus norvegicus. Conditions: in vivo.
The nature of data set [7]: in vivo. The note with it: rat. This is another data set of the same source.
A short description of data set [8]: in vivo. The note with it: rat. The source holds these as a separate data set.
The species entered for data set [9] is Rattus norvegicus. Put plainly: animal or person. Conditions: Sprague-Dawley, po, read-out: INH.
The species entered for data set [10] is Mus musculus. Kind of data set: animal or person. Conditions: NSA, ip, read-out: INH.
Another data set is described as follows: physchem. Conditions: polyethylene glycol.
The species named for data set [11] is Mus musculus. Put plainly: animal or person. The note with it: NSA, ip, read-out: INH. The source holds these as a separate data set.

From ChEMBL document CHEMBL1138444 (J Med Chem, 2009) come the findings set out here.

Molecules are shown by their SMILES. Where only a bound is given, the exact number is not on record here.

With `O=C(NCc1cccc(Cl)c1)c1ccc2c(c1)N=C(N1CCCCC1)c1ccccc1S2`, the microsomal CLint was 644 µL/min/mg in the data set “in vitro [1]” and 265 µL/min/mg in “in vitro [2]”.

Regarding `O=C(NCc1cccc(Cl)c1)c1ccc2c(c1)N=C(N1CCC(F)(F)CC1)c1ccccc1S2`, the values for the microsomal CLint in “in vitro [1]” and in “in vitro [2]” were 66 µL/min/mg and 40 µL/min/mg, respectively.

Molecule `O=C(NN1CCCCC1)c1ccc2c(c1)N=C(C1CCCCC1)c1ccccc1S2` showed a bioavailability in the data set “in vivo [3]” of 13%. Moreover, the Kp in the data set “in vivo [4]” turned out to be 4. Also, the results for the microsomal CLint in the data set “in vitro [1]” and in the data set “in vitro [2]” were 846 µL/min/mg and 84 µL/min/mg, respectively. Also, in the data set “in vivo [5]”, the Tmax turned out to be 0.5 h. The molecule further returned a clearance in the data set listed under Rattus norvegicus [6] of 0.442 L/h/kg. This molecule came in with a Cmax in the data set “in vivo [7]” of 0.651 µM. Further, the half-life in the data set “in vivo [8]” was 2.1 h.

As to `CCCCNC(=O)c1ccc2c(c1)N=C(c1ccc(Cl)cc1)c1ccccc1S2`, the bioavailability in “in vivo [3]” came out at 25%. For the same molecule, the inhibition in vivo at 10 mg/kg in the data set listed under Rattus norvegicus [9] worked out at 69%. Also, the microsomal CLint in the data set “in vitro [1]” was determined as 89 µL/min/mg; in “in vitro [2]” it was 24 µL/min/mg. The Tmax in the data set “in vivo [5]” came to 6 h. In the data set listed under Rattus norvegicus [6], this molecule returned a clearance of 0.0306 L/h/kg. Further, in “in vivo [7]”, the Cmax came to 0.677 µM. In the data set filed under Mus musculus [10], the inhibition in vivo at 1 mg/kg was 71%. Besides, the solubility in “physchem” is greater than 3.7 mg/mL. Moreover, in the data set listed under Mus musculus [11], the inhibition in vivo at 3 mg/kg amounted to 82%. The half-life in the data set “in vivo [8]” was 5.8 h.

`CCCCNC(=O)c1ccc2c(c1)N=C(c1ccc(Cl)c(Cl)c1)c1ccccc1S2` returned a microsomal CLint in the data set “in vitro [1]” of 32 µL/min/mg. Besides, the solubility in “physchem” was greater than 14 mg/mL. The inhibition in vivo at 3 mg/kg in the data set filed under Mus musculus [11] amounted to 58%.

In the case of `CC(C)CNC(=O)c1ccc2c(c1)N=C(c1ccc(Cl)s1)c1ccccc1S2`, in the data set filed under Rattus norvegicus [9], the inhibition in vivo at 10 mg/kg is 54%. Besides, the inhibition in vivo at 3 mg/kg in the data set listed under Mus musculus [11] was 73%.

For the molecule `CCCC1=Nc2cc(C(=O)NC3CCN(C(=O)OCC)CC3)ccc2Sc2ccccc21`, the microsomal CLint in the data set “in vitro [1]” is 539 µL/min/mg; in the data set “in vitro [2]”, 279 µL/min/mg.

Consider `CCCCNC(=O)c1ccc2c(c1)N=C(c1ccc(F)c(Cl)c1)c1ccccc1S2`, for which the inhibition in vivo at 10 mg/kg in the data set filed under Rattus norvegicus [9] was 59%. Further, the results for the microsomal CLint in the data set “in vitro [1]” and in “in vitro [2]” were 58 µL/min/mg and 16 µL/min/mg, respectively. Further, the inhibition in vivo at 1 mg/kg in the data set listed under Mus musculus [10] amounted to 70%. In the data set “physchem”, this molecule had a solubility greater than 13 mg/mL. Also, the inhibition in vivo at 3 mg/kg in the data set listed under Mus musculus [11] was found to be 94%.

In the case of `CN/C(=N\S(=O)(=O)c1ccc(Cl)cc1)N1C[C@H](c2ccccc2)C(c2ccc(Cl)cc2)=N1` (racemic) [IBIPINABANT], the inhibition in vivo at 1 mg/kg in the data set listed under Mus musculus [10] was 51%. In the data set filed under Mus musculus [11], the inhibition in vivo at 3 mg/kg came to 82%.

For the molecule `Cc1c(C(=O)NN2CCCCC2)nn(-c2ccc(Cl)cc2Cl)c1-c1ccc(Cl)cc1` [RIMONABANT], the inhibition in vivo at 10 mg/kg in the data set filed under Rattus norvegicus [9] is 55%. Moreover, the microsomal CLint came to 159 µL/min/mg in “in vitro [1]” and 41 µL/min/mg in the data set “in vitro [2]”. The inhibition in vivo at 1 mg/kg in the data set listed under Mus musculus [10] was 70%.

What is called microsomal CLint is the rate of metabolic loss divided by the concentration. Higher therefore signals faster metabolism. As a reminder, the bioavailability is the share of a dose that reaches the circulation, judged against a reference dose that is usually intravenous. A low value points to little systemic uptake. By Kp is commonly meant tissue or fluid exposure divided by exposure in the circulation. A word on the Tmax: it is the time from dosing to the highest level. A word on the clearance: it is a measure of how efficiently the substance is removed, as volume per time. A high value points to a high capacity for elimination. The Cmax is the maximum level reached in the sampled fluid or tissue. The term half-life denotes the time needed for the level to fall by half in the phase considered. High values mean slow decline, low ones rapid decline. As usually defined, the solubility is the dissolved amount per volume that the medium holds. Low readings indicate little dissolved substance, high ones much dissolved substance.
